Read-outs that look alike come from different tables or passages of the source.
How the values were obtained:
Assay type in all cases: physicochemical
[1] = Forced degradation: photolytic stability; conditions: for Photolytic stability, purity (%): solutions 1 mg/mL in ACN/water (3:7), cool daylight lamp, around 22° C.; for Initial purities, purity (%): T0, baseline of the photolytic and thermal stability studies; for Decrease of purity in the photolytic stability assay: after 3 weeks
Description: For photolytic stability, cool daylight lamp OSRAM DULUX TWIST 23W 1600 lm 6500 K located in 20 cm distance from the studied samples was used. Samples were prepared at 1 mg/mL concentration in ACN/water (3:7 v/v) solution and exposed to light in capped glass vials placed on reflective surface at ambient temperature (around 22° C.).
(§1) Samples were analyzed by RP-HPLC and Chiral HPLC at TO, after 1 week and after 3 weeks. For RP-HPLC analysis samples were analyzed directly from solutions used for stability study. For Chiral HPLC, aliquots were evaporated in Genevac at 40° C. and re-dissolved in the mobile phase.

[2] = Forced degradation: thermal stability; conditions: for Thermal stability, purity (%): solids at 115° C.; for Decrease of purity in the thermal stability assay: after 3 weeks
Description: For thermal stability powders were exposed to elevated temperature in capped glass vials kept inside thermostatic oven at 115° C.
as §1

[3] = Solubility in water; conditions: for Native pH: 150 mg material in 1.0 mL deionized water, before pH adjustment; for solubility: deionized water, pH 7.4, aqueous buffer, thermodynamic from solid
Description: Method. The solubility in water was studied as described hereafter. 150 mg of the studied materials of (1), (1·Na) and (1·K) were transferred to a glass vial and 1.0 mL of deionized water was added, vortex and ultrasonic treatment cycles were applied during 5 min. Then pH was checked and adjusted to pH=9.0-10.0 range by accurate addition of 2M aqueous solution of NaOH for (1) and (1·Na) or KOH for (1·K). Then several cycles of vortex and ultrasonic treatment were applied for 30 min. pH was adjusted to pH=7.2-7.6 range by careful addition of NaOH or KOH or HCl aqueous solutions. Vortex and ultrasonic treatment cycles and pH adjustments were repeated until pH stabilized at pH=7.2-7.6 range. Then the suspensions were centrifuged at 3000 rpm and supernatant was filtered thought membrane filter. The resulting filtrate was diluted in 1000 folds with DMSO and analyzed by HPLC against standard solution with known concentration.

[4] = water, pH adjusted to 7.2-7.6, filtrate analysed by HPLC, read-out: Maximal solubility pH 7.4

SMILES | Photolytic stability, purity (%) ([1]; 1 week) | Photolytic stability, purity (%) ([1]; 3 weeks) | Initial purities, purity (%) [1] [%] | Decrease of purity in the photolytic stability assay [1] [%] | Thermal stability, purity (%) ([2]; 1 week) | Thermal stability, purity (%) ([2]; 3 weeks) | Decrease of purity in the thermal stability assay [2] [%] | Native pH [3] | Solubility in water (in words) ([3]; acid form) | solubility [3, 4] [mg/mL] | Maximal solubility pH 7.4 ([3]; water, pH adjusted to 7.2-7.6, filtrate analysed by HPLC) [mg/mL] | solubility ([3]; water, read-out: Aqueous solubility (confirmed)) [mg/mL] | Increase of aqueous solubility compared with the free acid (1) ([3]; water, pH 7.4) [fold] | Increase of aqueous solubility compared with the potassium salt (1·K) ([3]; water, pH 7.4) [fold]
COc1ccccc1-c1ccc(C(=O)N2[C@@H](c3ccccc3Cl)CC[C@H]2C(=O)O)cc1 [compound 1, (2S,5R)-5-(2-chlorophenyl)-1-(2′-methoxy-[1,1′-biphenyl]-4-carbonyl)pyrrolidine-2-carboxylic acid] | 96.7 | 75.9 | 99.3 | 23.6 | 88.5 | 71.4 | 28.1 | 5 | poorly soluble in water | > 64 |  |  |  | 
COc1ccccc1-c1ccc(C(=O)N2[C@@H](c3ccccc3Cl)CC[C@H]2C(=O)[O-])cc1.[K+] [1·K] |  |  |  |  |  |  |  | 7 |  |  | 87 |  |  | 
COc1ccccc1-c1ccc(C(=O)N2[C@@H](c3ccccc3Cl)CC[C@H]2C(=O)[O-])cc1.[Na+] [1·Na, sodium (2S,5R)-5-(2-chlorophenyl)-1-(2′-methoxy-[1,1′-biphenyl]-4-carbonyl)pyrrolidine-2-carboxylate] | 98.5 | 97.0 | 99.3 | 2.3 | 99.1 | 98.9 | 0.4 | 7 |  | 129 |  | ~130 | 2 | 1.5

Source: US12528769B2, “Synthesis of (2S,5R)-5-(2-chlorophenyl)-1-(2′-methoxy-[1,1′-biphenyl]-4-carbonyl)pyrrolidine-2-carboxylic acid” (EPICS THERAPEUTICS, priority 2020, dated 2026)
